# Measured values: patent US20120214760A1, “TREATMENT OF URINARY TRACT INFECTIONS WITH ANTIBACTERIAL AMINOGLYCOSIDE COMPOUNDS” (Achaogen, Inc., priority 2009, published 2012)
# Like-named read-outs stand apart in the source and are kept apart here.
# What was measured:
# [1] = test system: E. coli ATCC 25922 (AECO001); assay: MIC, CLSI broth microdilution; format: cell-based; conditions: Escherichia coli
# How it was run: (§1)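 CLSI M7-A7 broth microdilution in Mueller Hinton Broth using two-fold compound serial dilutions. Inoculum was prepared from the previous day's agar colonies at a final 5×10^5 CFU/mL. Plates were incubated at 35° C for 20 hours in ambient air.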
# [2] = test system: P. aeruginosa ATCC 27853 (APAE001); assay: MIC, CLSI broth microdilution; format: cell-based; conditions: for MIC: Pseudomonas aeruginosa
# How it was run: as §1
# [3] = ATCC25922, read-out: MIC AECO001, Table 1, AECO001 is ATCC25922
# [4] = ATCC27853, read-out: MIC APAE001, Table 1, APAE001 is ATCC27853
# [5] = ATCC25922, Table 2, read-out: MIC E. coli
# [6] = Table 1, AECO001 is ATCC25922, read-out: MIC AECO001
# [7] = ATCC27853, Table 2, read-out: MIC P. aeruginosa
Structure (SMILES),"MIC [1, 3]","MIC [2, 4]",also measured
"CN[C@@H]1[C@@H](O)[C@@H](O[C@@H]2[C@@H](O)[C@H](O[C@H]3OC(CNC[C@H]4C[C@H](N)C4)=CC[C@H]3NC(=N)N)[C@@H](N)C[C@H]2N)OC[C@]1(C)O [Example 107, 6′-(Methyl-trans-3-amino-cyclobutyl)-2′-guanidinium-sisomicin]",1 to 16 µg/mL,< 1 µg/mL,
"CN[C@@H]1[C@@H](O)[C@@H](O[C@@H]2[C@@H](O)[C@H](O[C@H]3OC(CNCC4CC4)=CC[C@H]3N)[C@@H](N)C[C@H]2NC(=O)[C@H](O)CCN)OC[C@]1(C)O [Example 5, 6′-(Methyl-cyclopropyl)-1-(4-amino-2(R)-hydroxy-butyryl)-sisomicin]",< 1 µg/mL,1 to 16 µg/mL,
"CN[C@@H]1[C@@H](O)[C@@H](O[C@@H]2[C@@H](O)[C@H](O[C@H]3OC(CNC[C@H]4C[C@H](O)CN4)=CC[C@H]3N)[C@@H](N)C[C@H]2NC(=O)[C@@H](O)CN)OC[C@]1(C)O [Example 53, 6′-(Methyl-4(S)-hydroxy-pyrrolidin-2(R)-yl)-1-(3-amino-2(S)-hydroxy-propionyl)-sisomicin]",1 to 16 µg/mL,> 16 µg/mL,
"CN[C@@H]1[C@@H](O)[C@@H](O[C@@H]2[C@@H](O)[C@H](O[C@H]3OC(CNC[C@H](O)CO)=CC[C@H]3N)[C@@H](N)C[C@H]2NC(=O)[C@@H](O)CCN)OC[C@]1(C)O [Example 28, 6′-(2(S)-Hydroxy-propanol)-1-(4-amino-2(S)-hydroxy-butyryl)-sisomicin]",1 to 16 µg/mL,1 to 16 µg/mL,
CN[C@@H]1[C@@H](O)[C@@H](O[C@@H]2[C@@H](O)[C@H](O[C@H]3OC(CNCCO)=CC[C@H]3N)[C@@H](N)C[C@H]2NC(=O)C2(O)CNC2)OC[C@]1(C)O [Example 37],< 1 µg/mL,1 to 16 µg/mL,
"CN[C@@H]1[C@@H](O)[C@@H](O[C@@H]2[C@@H](O)[C@H](O[C@H]3OC(CN)=CC[C@H]3NC(=O)C(O)CN)[C@@H](N)C[C@H]2NC(=O)[C@@H](O)CCN)OC[C@]1(C)O (stereo partly drawn) [Example 89, 2′-(3-Amino-2-hydroxy-propionyl)-1-(4-amino-2(S)-hydroxy-butyryl)-sisomicin]",< 1 µg/mL,1 to 16 µg/mL,
"CN[C@@H]1[C@@H](O)[C@@H](O[C@@H]2[C@@H](O)[C@H](O[C@H]3OC(CNCC(O)CO)=CC[C@H]3N)[C@@H](N)C[C@H]2NC(=O)[C@H](O)CCN)OC[C@]1(C)O (stereo partly drawn) [Example 3, 6′-(2-Hydroxy-propanol)-1-(4-amino-2(R)-hydroxy-butyryl)-sisomicin]",1 to 16 µg/mL,> 16 µg/mL,
"CN[C@@H]1[C@@H](O)[C@@H](O[C@@H]2[C@@H](O)[C@H](O[C@H]3OC(CN)=CC[C@H]3NCC(N)CO)[C@@H](N)C[C@H]2NC(=O)[C@@H](O)CCN)OC[C@]1(C)O (stereo partly drawn) [Example 97, 2′-(2-Amino-propanol)-1-(4-amino-2(S)-hydroxy-butyryl)-sisomicin]",< 1 µg/mL,,"MIC APAE001 ([2]; Table 1, APAE001 is ATCC27853): B (MIC's of greater than 1.0 μg/mL to 16.0 μg/mL = B)"
CN[C@@H]1[C@@H](O)[C@@H](O[C@@H]2[C@@H](O)[C@H](O[C@H]3OC(CNCC4(CN)CC4)=CC[C@H]3N)[C@@H](N)C[C@H]2NC(=O)C2(O)CCNC2)OC[C@]1(C)O (stereo partly drawn) [Example 79],1 to 16 µg/mL,> 16 µg/mL,
"CN[C@@H]1[C@@H](O)[C@@H](O[C@@H]2[C@@H](O)[C@H](O[C@H]3OC(CNCCO)=CC[C@H]3N)[C@@H](N)C[C@H]2NC(=O)[C@H](O)CN)OC[C@]1(C)O [Example 9, 6′-(2-Hydroxy-ethyl)-1-(3-amino-2(R)-hydroxy-propionyl)-sisomicin]",1 to 16 µg/mL,> 16 µg/mL,
"CN[C@@H]1[C@@H](O)[C@@H](O[C@@H]2[C@@H](O)[C@H](O[C@H]3OC(CNCCCN)=CC[C@H]3N)[C@@H](N)C[C@H]2NC(=O)[C@H](O)CN)OC[C@]1(C)O [Example 11, 6′-(3-Amino-propyl)-1-(3-amino-2(R)-hydroxy-propionyl)-sisomicin]",< 1 µg/mL,1 to 16 µg/mL,
"CN[C@@H]1[C@@H](O)[C@@H](O[C@@H]2[C@@H](O)[C@H](O[C@H]3OC(CNCC(O)CN)=CC[C@H]3N)[C@@H](N)C[C@H]2NC(=O)[C@@H](O)CN)OC[C@]1(C)O (stereo partly drawn) [Example 22, 6′-(3-Amino-2-hydroxy-propyl)-1-(3-amino-2(S)-hydroxy-propionyl)-sisomicin]",,,"MIC [1, 5]: 1 to 16 µg/mL; MIC [1, 6]: 1 to 16 µg/mL; MIC [2, 7]: 1 to 16 µg/mL"
"CN[C@@H]1[C@@H](O)[C@@H](O[C@@H]2[C@@H](O)[C@H](O[C@H]3OC(CNCC4(CN)CC4)=CC[C@H]3N)[C@@H](N)C[C@H]2NC(=O)[C@@H](O)CN)OC[C@]1(C)O [Example 66, 6′-(Methyl-1-aminomethyl-cyclopropyl)-1-(3-amino-2(S)-hydroxy-propionyl)-sisomicin]",< 1 µg/mL,1 to 16 µg/mL,
"CN[C@@H]1[C@@H](O)[C@@H](O[C@@H]2[C@@H](O)[C@H](O[C@H]3OC(CNCC(O)CO)=CC[C@H]3N)[C@@H](N)C[C@H]2NC(=O)[C@@H](O)CCN)OC[C@]1(C)O (stereo partly drawn) [Example 19, 6′-(2-Hydroxy-propanol)-1-(4-amino-2(S)-hydroxy-butyryl)-sisomicin]",< 1 µg/mL,1 to 16 µg/mL,
"CN[C@@H]1[C@@H](O)[C@@H](O[C@@H]2[C@@H](O)[C@H](O[C@H]3OC(CNC(=N)N)=CC[C@H]3NC(=N)N)[C@@H](N)C[C@H]2N)OC[C@]1(C)O [Example 105, 6′,2′-bis-Guanidinium-sisomicin]",> 16 µg/mL,> 16 µg/mL,
"CN[C@@H]1[C@@H](O)[C@@H](O[C@@H]2[C@@H](O)[C@H](O[C@H]3OC(CN)=CC[C@H]3NCC(O)CN)[C@@H](N)C[C@H]2NC(=O)[C@@H](O)CCN)OC[C@]1(C)O (stereo partly drawn) [Example 101, 2′-(2-Hydroxy-3-amino-propyl)-1-(4-amino-2(S)-hydroxy-butyryl)-sisomicin]",< 1 µg/mL,1 to 16 µg/mL,
"CN[C@@H]1[C@@H](O)[C@@H](O[C@@H]2[C@@H](O)[C@H](O[C@H]3OC(CNCC(C)(C)CN)=CC[C@H]3N)[C@@H](N)C[C@H]2NC(=O)[C@@H](O)CN)OC[C@]1(C)O [Example 51, 6′-(2,2-Dimethyl-3-amino-propyl)-1-(3-amino-2(S)-hydroxy-propionyl)-sisomicin]",< 1 µg/mL,> 16 µg/mL,
CN[C@@H]1[C@@H](O)[C@@H](O[C@@H]2[C@@H](O)[C@H](O[C@H]3OC(CNCCO)=CC[C@H]3N)[C@@H](N)C[C@H]2NC(=O)C2(O)CC(N)C2)OC[C@]1(C)O (stereo partly drawn) [Example 62],< 1 µg/mL,1 to 16 µg/mL,
"CN[C@@H]1[C@@H](O)[C@@H](O[C@@H]2[C@@H](O)[C@H](O[C@H]3OC(CNCCCN)=CC[C@H]3N)[C@@H](N)C[C@H]2NC(=O)[C@H](O)CCN)OC[C@]1(C)O [Example 6, 6′-(3-Amino-propyl)-1-(4-amino-2(R)-hydroxy-butyryl)-sisomicin]",1 to 16 µg/mL,1 to 16 µg/mL,
"CN[C@@H]1[C@@H](O)[C@@H](O[C@@H]2[C@@H](O)[C@H](O[C@H]3OC(CN)=CC[C@H]3NC(=O)C(N)CCCN)[C@@H](N)C[C@H]2NC(=O)[C@@H](O)CCN)OC[C@]1(C)O (stereo partly drawn) [Example 99, 2′-(2,5-Diamino-pentoyl)-1-(4-amino-2(S)-hydroxy-butyryl)-sisomicin]",1 to 16 µg/mL,1 to 16 µg/mL,
CN[C@@H]1[C@@H](O)[C@@H](O[C@@H]2[C@@H](O)[C@H](O[C@H]3OC(CNC[C@H]4C[C@H](N)C4)=CC[C@H]3N)[C@@H](N)C[C@H]2NC(=O)C2(O)CC(N)C2)OC[C@]1(C)O (stereo partly drawn) [Example 60],< 1 µg/mL,1 to 16 µg/mL,
"CN[C@@H]1[C@@H](O)[C@@H](O[C@@H]2[C@@H](O)[C@H](O[C@H]3OC(CN)=CC[C@H]3NCCO)[C@@H](N)C[C@H]2NC(=O)[C@@H](O)CCN)OC[C@]1(C)O [Example 98, 2′-(2-Hydroxy-ethyl)-1-(4-amino-2(S)-hydroxy-butyryl)-sisomicin]",1 to 16 µg/mL,1 to 16 µg/mL,
CN[C@@H]1[C@@H](O)[C@@H](O[C@@H]2[C@@H](O)[C@H](O[C@H]3OC(CNCC4(O)CC(N)C4)=CC[C@H]3N)[C@@H](N)C[C@H]2NC(=O)[C@@H](O)CCN)OC[C@]1(C)O (stereo partly drawn) [Example 46],< 1 µg/mL,1 to 16 µg/mL,
"CN[C@@H]1[C@@H](O)[C@@H](O[C@@H]2[C@@H](O)[C@H](O[C@H]3OC(CN)=CC[C@H]3NC3CNC3)[C@@H](N)C[C@H]2NC(=O)[C@@H](O)CCN)OC[C@]1(C)O [Example 96, 2′-(Azetidin-3-yl)-1-(4-amino-2(S)-hydroxy-butyryl)-sisomicin]",,,"MIC [1, 5]: < 1 µg/mL; MIC [1, 6]: < 1 µg/mL; MIC [2, 7]: 1 to 16 µg/mL"
"CN[C@@H]1[C@@H](O)[C@@H](O[C@@H]2[C@@H](O)[C@H](O[C@H]3OC(CNC(=O)C(O)CN)=CC[C@H]3N)[C@@H](N)C[C@H]2NC(=O)[C@@H](O)CN)OC[C@]1(C)O (stereo partly drawn) [Example 20, 6′-(3-Amino-2-hydroxy-propionyl)-1-(3-amino-2(S)-hydroxy-propionyl)-sisomicin]",> 16 µg/mL,> 16 µg/mL,
"CN[C@@H]1[C@@H](O)[C@@H](O[C@@H]2[C@@H](O)[C@H](O[C@H]3OC(CNCC4CC4)=CC[C@H]3N)[C@@H](N)C[C@H]2NC(=O)[C@H](O)CN)OC[C@]1(C)O [Example 7, 6′-Methyl-cyclopropyl-1-(3-amino-2(R)-hydroxy-propionyl)-sisomicin]",< 1 µg/mL,1 to 16 µg/mL,
